{
  "source": "the Kinase Knowledgebase extract (Sharma et al. 2016)",
  "data": [
    {"target": "EGFR (UniProt P00533)", "sequence (P00533 whole entry, looked up)": "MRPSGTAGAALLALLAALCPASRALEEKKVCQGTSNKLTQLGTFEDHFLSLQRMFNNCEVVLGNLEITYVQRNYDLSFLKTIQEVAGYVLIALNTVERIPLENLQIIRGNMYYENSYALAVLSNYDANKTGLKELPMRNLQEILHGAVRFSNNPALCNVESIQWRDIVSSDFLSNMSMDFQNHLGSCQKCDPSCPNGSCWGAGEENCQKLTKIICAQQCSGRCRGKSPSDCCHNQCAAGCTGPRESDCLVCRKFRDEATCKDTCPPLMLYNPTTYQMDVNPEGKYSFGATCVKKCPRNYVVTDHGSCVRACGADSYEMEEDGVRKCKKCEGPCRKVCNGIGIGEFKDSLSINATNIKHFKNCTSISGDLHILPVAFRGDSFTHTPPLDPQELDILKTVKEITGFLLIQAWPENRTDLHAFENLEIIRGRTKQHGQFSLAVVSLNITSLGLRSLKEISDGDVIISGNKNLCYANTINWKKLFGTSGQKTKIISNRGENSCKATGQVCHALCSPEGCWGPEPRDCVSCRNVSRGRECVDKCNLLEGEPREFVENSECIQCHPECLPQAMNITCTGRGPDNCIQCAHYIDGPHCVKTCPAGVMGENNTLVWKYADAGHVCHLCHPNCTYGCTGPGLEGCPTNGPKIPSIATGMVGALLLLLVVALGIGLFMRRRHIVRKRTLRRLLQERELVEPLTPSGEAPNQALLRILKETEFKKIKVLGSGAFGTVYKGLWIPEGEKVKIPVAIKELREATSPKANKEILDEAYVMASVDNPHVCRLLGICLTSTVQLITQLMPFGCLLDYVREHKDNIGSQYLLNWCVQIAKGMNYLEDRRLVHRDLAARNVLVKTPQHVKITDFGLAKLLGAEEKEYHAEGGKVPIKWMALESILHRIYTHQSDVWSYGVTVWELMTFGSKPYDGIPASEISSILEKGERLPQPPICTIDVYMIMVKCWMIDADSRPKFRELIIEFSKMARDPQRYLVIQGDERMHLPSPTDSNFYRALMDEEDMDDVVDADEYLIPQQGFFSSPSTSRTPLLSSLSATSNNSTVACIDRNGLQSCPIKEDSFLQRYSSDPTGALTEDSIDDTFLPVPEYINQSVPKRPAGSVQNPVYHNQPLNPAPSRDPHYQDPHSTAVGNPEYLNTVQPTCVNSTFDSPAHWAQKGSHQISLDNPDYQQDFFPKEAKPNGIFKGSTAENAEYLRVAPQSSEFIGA", "units": {"IC50": "µg/mL"}, "values": [
      {"smiles": "COc1cc(Nc2ncnc(Nc3ncncn3)n2)cc(OC)c1OC", "IC50": "> 4.5"},
      {"smiles": "N#Cc1ccc(Nc2ncnc(-c3cccs3)n2)cc1", "IC50": "> 4.5"},
      {"smiles": "COc1cc(Nc2ncnc(-n3c(OCc4ccccn4)nc4ccccc43)n2)cc(OC)c1OC", "IC50": "> 4.5"},
      {"smiles": "COc1cc(Nc2ncnc(-n3ccnc3)n2)cc(OC)c1OC", "IC50": "> 4.5"},
      {"smiles": "COc1cc(Nc2ncnc(Nc3cc(F)ccc3F)n2)cc(OC)c1OC", "IC50": "0.4 to 2.4"},
      {"smiles": "COC(=O)c1ccc(Nc2ncnc(Nc3cc(-c4ccco4)n[nH]3)n2)cc1", "IC50": "> 4.5"},
      {"smiles": "COc1ccc(Nc2nc3ccccc3n2-c2ncnc(Nc3cc(OC)c(OC)c(OC)c3)n2)c(C)c1", "IC50": "> 4.5"},
      {"smiles": "COc1ccc(Nc2nc3ccccc3n2-c2ncnc(Nc3cc(OC)c(OC)c(OC)c3)n2)cc1OC", "IC50": "> 4.5"},
      {"smiles": "COc1cc(Nc2ncnc(Nc3ccc(N(C)C(C)=O)cc3)n2)cc(OC)c1OC", "IC50": "> 4.5"},
      {"smiles": "Nc1nc2ccccc2n1-c1ncnc(Nc2ccc(S(N)(=O)=O)cc2)n1", "IC50": "> 4.5"},
      {"smiles": "Cc1ccc2c(c1)CCCN2c1ncnc(NCc2ccc(C(=O)O)cc2)n1", "IC50": "> 4.5"},
      {"smiles": "O=c1[nH]c2ccccc2n1-c1ncnc(Nc2cccc(Cl)c2)n1", "IC50": "2.4 to 3.5"},
      {"smiles": "Nc1ncnc(Nc2cccc(C(F)(F)F)c2)n1", "IC50": "> 4.5"},
      {"smiles": "COc1ccc(Nc2ncnc(N(C)c3ccc(Cl)cc3)n2)cc1OC", "IC50": "< 0.4"},
      {"smiles": "COc1cc(Nc2ncnc(N[C@H](CO)c3ccccc3)n2)cc(OC)c1OC", "IC50": "0.4 to 2.4"},
      {"smiles": "COc1cc(Nc2ncnc(-n3c(NCc4ccccc4Cl)nc4ccccc43)n2)cc(OC)c1OC", "IC50": "> 4.5"},
      {"smiles": "NC(=O)c1ccc(Nc2ncnc(-n3c(N)nc4ccccc43)n2)cc1", "IC50": "2.4 to 3.5"},
      {"smiles": "COc1cc(Nc2ncnc(-c3cccnc3Nc3ccccc3C)n2)cc(OC)c1OC", "IC50": "> 4.5"},
      {"smiles": "COc1cc(Nc2ncnc(-n3c(Cl)nc4ccccc43)n2)cc(OC)c1OC", "IC50": "> 4.5"},
      {"smiles": "Fc1ccccc1Nc1ncnc(-c2ccccc2)n1", "IC50": "> 4.5"},
      {"smiles": "CCN(CC)CCCNc1ccc(-c2ncnc(Nc3cc(OC)c(OC)c(OC)c3)n2)cn1", "IC50": "> 4.5"},
      {"smiles": "COc1cc(Nc2ncnc(-c3cccnc3NCc3ccccc3F)n2)cc(OC)c1OC", "IC50": "> 4.5"},
      {"smiles": "Nc1ncnc(Nc2cccc(Nc3ncnc(N)n3)c2)n1", "IC50": "> 4.5"},
      {"smiles": "Cc1ccc(-c2cc(Nc3ncnc(Nc4cc(C)ccc4C)n3)[nH]n2)cc1", "IC50": "< 0.4"},
      {"smiles": "COc1cc(Nc2ncnc(-n3c(Nc4cccc(C)c4)nc4ccccc43)n2)cc(OC)c1OC", "IC50": "> 4.5"},
      {"smiles": "CC(=O)Nc1ccc(Nc2ncnc(-n3c(N)nc4ccccc43)n2)cc1", "IC50": "> 4.5"},
      {"smiles": "COc1ccc(Nc2ncnc(Nc3cccc(-c4ccnc(C)n4)c3)n2)cc1OC", "IC50": "> 4.5"},
      {"smiles": "CCN(c1ccc(C)cc1)c1ncnc(Nc2cc(OC)c(OC)c(OC)c2)n1", "IC50": "< 0.4"},
      {"smiles": "CCN(c1cccc(C)c1)c1ncnc(Nc2cc(OC)c(OC)c(OC)c2)n1", "IC50": "< 0.4"},
      {"smiles": "Cc1ccc(Nc2ncnc(N)n2)cc1", "IC50": "> 4.5"},
      {"smiles": "CN(c1ccc2c(cnn2Cc2ccccc2)c1)c1ncnc(Nc2cccc(Cn3ccnn3)c2)n1", "IC50": "< 0.4"},
      {"smiles": "COc1ccc(CNc2nc3ccccc3n2-c2ncnc(Nc3cc(OC)c(OC)c(OC)c3)n2)cc1OC", "IC50": "2.4 to 3.5"},
      {"smiles": "COc1cc(Nc2ncnc(-n3c(Nc4cccc(F)c4)nc4ccccc43)n2)cc(OC)c1OC", "IC50": "2.4 to 3.5"},
      {"smiles": "COc1ccc(Nc2ncnc(Nc3ccc(N4CCCCC4)cc3)n2)cc1OC", "IC50": "0.4 to 2.4"},
      {"smiles": "COc1cc2ccn(-c3ncnc(Nc4cc(OC)c(OC)c(OC)c4)n3)c2cc1OC", "IC50": "3.5 to 4.5"},
      {"smiles": "COc1ccc2c(c1)c(CCNC(C)=O)cn2-c1ncnc(Nc2cc(OC)c(OC)c(OC)c2)n1", "IC50": "> 4.5"},
      {"smiles": "COc1ccc(N(C)c2ncnc(Nc3ccc(OC)c(OC)c3)n2)cc1", "IC50": "< 0.4"},
      {"smiles": "O=c1[nH]c2ccccc2n1-c1ncnc(Nc2cccc(NS(=O)(=O)c3ccc([N+](=O)[O-])cc3)c2)n1", "IC50": "0.4 to 2.4"},
      {"smiles": "COc1cc(Nc2ncnc(-c3ccnc(NCCCO)c3)n2)cc(OC)c1OC", "IC50": "> 4.5"},
      {"smiles": "COc1ccc(Nc2ncnc(Nc3ccc(N(C)C)cc3)n2)cc1OC", "IC50": "> 4.5"},
      {"smiles": "COc1cc(Nc2ncnc(NC(=O)NCCc3ccccc3)n2)cc(OC)c1OC", "IC50": "> 4.5"},
      {"smiles": "COc1cc(Nc2ncnc(-n3c(Nc4ccc(F)cc4)nc4ccccc43)n2)cc(OC)c1OC", "IC50": "> 4.5"},
      {"smiles": "COc1cc(Nc2ncnc(-n3c(N)nc4cc([N+](=O)[O-])ccc43)n2)cc(OC)c1OC.COc1cc(Nc2ncnc(-n3c(N)nc4ccc([N+](=O)[O-])cc43)n2)cc(OC)c1OC", "IC50": "> 4.5"},
      {"smiles": "COC(=O)c1ccc(-c2cc(Nc3ncnc(NCCCO)n3)[nH]n2)cc1", "IC50": "> 4.5"},
      {"smiles": "CCc1cccc(Nc2ncnc(-n3c(N)nc4ccccc43)n2)c1", "IC50": "0.4 to 2.4"},
      {"smiles": "CC(C)Nc1ncccc1-c1ncnc(Nc2cccc(Cn3ccnn3)c2)n1", "IC50": "2.4 to 3.5"},
      {"smiles": "Cc1ccc2c(c1)CCCN2c1ncnc(Nc2cc[nH]n2)n1", "IC50": "0.4 to 2.4"},
      {"smiles": "CC(C)(C)c1cc(Nc2ncnc(Cl)n2)[nH]n1", "IC50": "> 4.5"},
      {"smiles": "O=c1[nH]c2ccccc2n1-c1ncnc(Nc2cccc(OC(F)(F)F)c2)n1", "IC50": "> 4.5"},
      {"smiles": "c1csc(-c2ncnc(Nc3ccc4c(c3)OCO4)n2)c1", "IC50": "> 4.5"},
      {"smiles": "COc1cc(Nc2ncnc(NC3CCc4ccccc43)n2)cc(OC)c1OC", "note": "(centres undefined)", "IC50": "0.4 to 2.4"},
      {"smiles": "CC(=O)NS(=O)(=O)c1ccc(Nc2ncnc(-n3c(=O)[nH]c4ccccc43)n2)cc1", "IC50": "> 4.5"},
      {"smiles": "Fc1ccc(CNc2ncccc2-c2ncnc(Nc3cccc(Cn4ccnc4)c3)n2)cc1", "IC50": "0.4 to 2.4"},
      {"smiles": "COc1cc(Nc2ncnc(N(CCO)c3ccccc3)n2)cc(OC)c1OC", "IC50": "< 0.4"}
    ]}
  ]
}
